Columns and labels:
[1] = test system: patient suffering from transient or short term insomnia; experiment: Treatment of a patient with transient or short term insomnia; format: in vivo, human
Description: A patient suffers from transient or short term insomnia. The patient is otherwise healthy with normal affect with no depression, anxiety or substance overuse. The patient is prescribed desmethyldoxepin in a daily dosage of 1 milligram, prior to bedtime.
A patient suffers from transient or short term insomnia. The patient is otherwise healthy with normal affect with no depression, anxiety or substance overuse. The patient is prescribed desmethyldoxepin in a daily dosage of 2 milligrams, prior to bedtime.
A patient suffers from transient or short term insomnia. The patient also suffers from depression. The patient is prescribed desmethyldoxepin in a daily dosage of 2 milligrams, prior to bedtime.
A patient suffers from transient or short term insomnia. The patient is otherwise healthy with normal affect with no depression, anxiety or substance overuse. The patient is prescribed desmethyldoxepin in a daily dosage of 5 milligrams, prior to bedtime.
A patient suffers from transient or short term insomnia. The patient also suffers from depression. The patient is prescribed desmethyldoxepin in a daily dosage of 5 milligrams, prior to bedtime.
A patient suffers from transient or short term insomnia. The patient is otherwise healthy with normal affect with no depression, anxiety or substance overuse. The patient is prescribed desmethyldoxepin in a daily dosage of 10 milligrams, prior to bedtime.
A patient suffers from transient or short term insomnia. The patient also suffers from depression. The patient is prescribed desmethyldoxepin in a daily dosage of 10 milligrams, prior to bedtime.
A patient suffers from transient or short term insomnia. The patient is otherwise healthy with normal affect with no depression, anxiety or substance overuse. The patient is prescribed desmethyldoxepin in a daily dosage of 20 milligrams prior to bedtime.
A patient suffers from transient or short term insomnia. The patient also suffers from depression. The patient is prescribed desmethyldoxepin in a daily dosage of […] prior to bedtime.
A patient suffers from transient or short term insomnia. The patient is otherwise healthy with normal affect with no depression, anxiety or substance overuse. The patient is prescribed desmethyldoxepin in a daily dosage of 150 milligrams prior to bedtime.
A patient suffers from transient or short term insomnia. The patient also suffers from depression. The patient is prescribed desmethyldoxepin in a daily dosage of 150 milligrams prior to bedtime.

[2] = test system: patient suffering from chronic insomnia; experiment: Treatment of a patient with chronic insomnia; format: in vivo, human
Description: A patient suffers from chronic insomnia. The patient is otherwise healthy with normal affect with no depression, anxiety or substance overuse. The patient is prescribed desmethyldoxepin in a daily dosage of 2 milligrams prior to bedtime.
A patient suffers from chronic insomnia. The patient also suffers from depression. The patient is prescribed desmethyldoxepin in a daily dosage of 1 milligram prior to bedtime.
A patient suffers from chronic insomnia. The patient also suffers from depression. The patient is prescribed desmethyldoxepin in a daily dosage of 2 milligrams prior to bedtime.
A patient suffers from chronic insomnia. The patient is otherwise healthy with normal affect with no depression, anxiety or substance overuse. The patient is prescribed desmethyldoxepin in a daily dosage of 5 milligrams prior to bedtime.
A patient suffers from chronic insomnia. The patient also suffers from depression. The patient is prescribed desmethyldoxepin in a daily dosage of 5 milligrams prior to bedtime.
A patient suffers from chronic insomnia. The patient is otherwise healthy with normal affect with no depression, anxiety or substance overuse. The patient is prescribed desmethyldoxepin in a daily dosage of 10 milligrams prior to bedtime.
A patient suffers from chronic insomnia. The patient also suffers from depression. The patient is prescribed desmethyldoxepin in a daily dosage of 10 milligrams prior to bedtime.
A patient suffers from chronic insomnia. The patient is otherwise healthy with normal affect with no depression, anxiety or substance overuse. The patient is prescribed desmethyldoxepin in a daily dosage of 20 milligrams prior to bedtime.
A patient suffers from chronic insomnia. The patient also suffers from depression. The patient is prescribed desmethyldoxepin in a daily dosage of 20 milligrams prior to bedtime.
A patient suffers from chronic insomnia. The patient is otherwise healthy with normal affect with no depression, anxiety or substance overuse. The patient is prescribed desmethyldoxepin in a daily dosage of 150 milligrams prior to bedtime.
A patient suffers from chronic insomnia. The patient also suffers from depression. The patient is prescribed desmethyldoxepin in a daily dosage of 150 milligrams prior to bedtime.

[3] = daily dosage of 2 milligrams prior to bedtime, patient also suffers from depression
[4] = daily dosage of 2 milligrams prior to bedtime, patient otherwise healthy, no depression, anxiety or substance overuse
[5] = daily dosage of 5 milligrams prior to bedtime, patient also suffers from depression
[6] = daily dosage of 5 milligrams prior to bedtime, patient otherwise healthy, no depression, anxiety or substance overuse
[7] = daily dosage of 10 milligrams prior to bedtime, patient also suffers from depression
[8] = daily dosage of 10 milligrams prior to bedtime, patient otherwise healthy, no depression, anxiety or substance overuse
[9] = daily dosage of 20 milligrams prior to bedtime, patient otherwise healthy, no depression, anxiety or substance overuse
[10] = daily dosage of 150 milligrams prior to bedtime, patient also suffers from depression
[11] = daily dosage of 150 milligrams prior to bedtime, patient otherwise healthy, no depression, anxiety or substance overuse

Measured: relief of insomnia

CNCC/C=C1/c2ccccc2COc2ccccc21 [desmethyldoxepin, Desmethyldoxepin]
relieves the insomnia: [1]; daily dosage of 1 milligram prior to bedtime, patient otherwise healthy, no depression, anxiety or substance overuse | [1]; [3] | [1]; [4] | [1]; [5] | [1]; [6] | [1]; [7] | [1]; [8] | [1]; [9] | [1]; daily dosage of 20 prior to bedtime, patient also suffers from depression | [1]; [10] | [1]; [11] | [2]; daily dosage of 1 milligram prior to bedtime, patient also suffers from depression | [2]; [3] | [2]; [4] | [2]; [5] | [2]; [6] | [2]; [7] | [2]; [8] | [2]; daily dosage of 20 milligrams prior to bedtime, patient also suffers from depression | [2]; [9] | [2]; [10] | [2]; [11]
